Drawing on PMC7213978, “The dynamic interplay of host and viral enzymes in type III CRISPR-mediated cyclic nucleotide signalling” (eLife, 2020), this text covers Kd for one compound.

The assay has as its target T1, AcrIII-1 (SIRV1 gp29) (Sulfolobus islandicus rod-shaped virus 1, UniProt Q8QL27, H47A).
T1 construct: gene 114
The experiment in a line: biochemical.

T1 sequence (Q8QL27 whole entry H47A): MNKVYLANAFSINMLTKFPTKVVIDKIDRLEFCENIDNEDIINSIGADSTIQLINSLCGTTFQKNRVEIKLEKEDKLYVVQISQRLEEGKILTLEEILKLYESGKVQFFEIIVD

For the compound `Nc1ncnc2c1ncn2[C@@H]1O[C@@H]2COP(=O)(O)O[C@H]3[C@@H](O)[C@H](n4cnc5c(N)ncnc54)O[C@@H]3COP(=O)(O)O[C@H]3[C@@H](O)[C@H](n4cnc5c(N)ncnc54)O[C@@H]3COP(=O)(O)O[C@H]3[C@@H](O)[C@H](n4cnc5c(N)ncnc54)O[C@@H]3COP(=O)(O)O[C@H]2[C@H]1O` [cA4, cyclic tetra-adenylate], the Kd is ~0.025 µM.

As usually defined, the Kd is the constant that tells how readily two partners part at equilibrium. Lower therefore signals a tighter complex.
